The results in this text go back to paper PMC6511041 (Proceedings of the National Academy of Sciences of the …, 2019).

The target of one experiment is T1, Olfr1062 (Mus musculus, UniProt Q7TR71).
T1 sequence (Q7TR71 1-315): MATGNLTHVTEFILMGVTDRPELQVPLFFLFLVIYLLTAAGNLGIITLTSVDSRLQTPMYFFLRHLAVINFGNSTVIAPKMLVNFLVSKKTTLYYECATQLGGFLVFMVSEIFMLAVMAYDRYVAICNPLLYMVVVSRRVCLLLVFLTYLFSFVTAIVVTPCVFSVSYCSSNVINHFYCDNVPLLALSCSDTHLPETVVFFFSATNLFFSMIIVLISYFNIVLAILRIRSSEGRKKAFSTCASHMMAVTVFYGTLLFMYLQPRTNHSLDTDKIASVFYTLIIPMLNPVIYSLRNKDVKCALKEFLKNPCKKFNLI
As to the kind of experiment: Dual-Glo firefly/Renilla luciferase reporter, dose-response. The settings on record: odorant up to 0.3 mM; competitive-binding model fit, single odorant. The format is cell-based. Background: In a reporter assay the amount or activity of a reporter protein is the signal.

In the next experiment the target is T2, OR5P3 (Homo sapiens, UniProt Q8WZ94).
T2 sequence (Q8WZ94 1-311): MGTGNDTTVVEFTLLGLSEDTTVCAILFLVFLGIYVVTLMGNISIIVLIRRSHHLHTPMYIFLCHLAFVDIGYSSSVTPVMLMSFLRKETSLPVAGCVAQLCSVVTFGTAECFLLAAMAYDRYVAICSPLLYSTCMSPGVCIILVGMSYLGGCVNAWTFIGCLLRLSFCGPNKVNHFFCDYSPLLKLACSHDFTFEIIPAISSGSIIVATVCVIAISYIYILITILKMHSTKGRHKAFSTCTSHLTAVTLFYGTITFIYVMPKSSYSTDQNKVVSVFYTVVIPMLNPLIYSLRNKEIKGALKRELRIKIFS
The experiment is described as above. It counts as cell-based. The settings on record: odorant up to 0.3 mM; competitive-binding model fit, single odorant.

The structures appear in SMILES notation.

With `C=CCc1ccc(O)c(OC)c1` [eugenol], the EC50 entry on Olfr1062 is reported as “Olfr1062, synergy between all three pairs”. On to `CC(=O)c1ccccc1` [acetophenone], for which the EC50 entry at Olfr1062 is “Olfr1062, synergy between all three pairs”; on OR5P3 it was “OR5P3, synergy between coumarin and acetophenone”. As to `O=c1ccc2ccccc2o1` [coumarin], the EC50 result on Olfr1062 was “Olfr1062, synergy between all three pairs”; at OR5P3, “OR5P3, synergy between coumarin and acetophenone”.
